Laboratory results published in US4784955A, “Immunogen conjugates and the use thereof in a dihydropyridine assay” (Miles Inc., priority 1986, dated 1988).
Where two headings read alike, the source gives them in different places. One block for each compound: values may come before it.

Columns and labels:
[1] = tested on: monoclonal antibody XIIIE82 /H8; assay: Binding of radioactive Ca2+ channel blockers to monoclonal antibody XIIIE82 /H8-Sepharose 6MB beads; design: species or system mouse; conditions: for ability to bind to monoclonal antibody XIIIE82 /H8-Sepharose 6MB beads (in words): 1.0 nM concentration; for CPM Bound / fmoles of Ca2+ channel blocker specifically bound per μg of monoclonal antibody XIIIE82 /H8: [3H]calcium channel blocker 1.0 nM
Description: Various radioactive Ca^2+ channel blockers at a 1.0 nM concentration were tested for their ability to bind to monoclonal antibody XIIIE82 /H8-Sepharose 6MB beads.

[2] = tested on: monoclonal antibody XIIIE82 /H8; assay: Nifedipine radioimmunoassay using monoclonal antibody XIIIE82 /H8-Sepharose 6MB beads; conditions: 100 pM [3H]nitrendipine
[3] = tested on: 1,4-dihydropyridine-specific antibodies; assay: 1,4-Dihydropyridine radioimmunoassay (dextran-coated charcoal separation), nitrendipine standard curve; type: binding; conditions: 20 pM [3H]nitrendipine; for % B/Bo: 60 min
Description: After a 1 hour incubation in the dark at room temperature, the assay tubes were transferred to an ice water bath for 10 min. […] After an additional 12 minutes in the ice bath, the assay tubes were centrifuged for 15 minutes at 850×g in a Beckman TJ-6 centrifuge. A 0.80 ml sample of the clear supernatant was then added to 10 ml of liquid scintillation fluid and counted in a Beckman LS8100 liquid scintillation counter. […] An alternate procedure for the RIA on human plasma samples involves the dilutions of standards in normal pooled human plasma (rather than in bovine serum albumin in saline, as described above) and the use of 0.2 ml aliquots of standard or human plasma samples.

[4] = tested on: monoclonal antibody XH42 /G1
[5] = target: XH42 /Gl monoclonal antibody; assay: Competitive binding assay according to the method of Muller, XH42 /Gl; design: species or system mouse; conditions: [3H]nitrendipine-XH42 /Gl monoclonal antibody complex; read-out: average apparent dissociation constant (kd)
[6] = target: XIIIE82 /H8-monoclonal antibody; assay: Competitive binding assay according to the method of Muller, XIIIE82 /H8; design: species or system mouse; conditions: [3H]nitrendipine-XIIIE82 /H8-monoclonal antibody complex; read-out: average apparent dissociation constant (Kd)
[7] = tested on: polyclonal antibodies prepared against the immunogen conjugates; assay: Cross-reactivity with polyclonal antibodies prepared against the immunogen conjugates; type: binding
[8] = tested on: New Zealand white rabbits; conditions: immunized rabbits
[9] = nifedipine standard 3.7 nanograms/ml in final assay mixture
[10] = nifedipine standard 11.2 nanograms/ml
[11] = nifedipine standard 18.7 nanograms/ml
[12] = nifedipine standard 37.3 nanograms/ml
[13] = nifedipine standard 112.0 nanograms/ml
[14] = nifedipine standard 186.7 nanograms/ml
[15] = nifedipine standard 373.4 nanograms/ml
[16] = nifedipine standard 1866.8 nanograms/ml
[17] = nitrendipine standard 18.0 picograms/ml in final assay mixture
[18] = nitrendipine standard 36.0 picograms/ml
[19] = nitrendipine standard 72.0 picograms/ml
[20] = nitrendipine standard 180.0 picograms/ml
[21] = nitrendipine standard 360.0 picograms/ml
[22] = nitrendipine standard 720.0 picograms/ml
[23] = nitrendipine standard 1800.0 picograms/ml
[24] = nitrendipine standard 0.4 nanograms/ml in final assay mixture
[25] = nitrendipine standard 1.1 nanograms/ml
[26] = nitrendipine standard 1.8 nanograms/ml
[27] = nitrendipine standard 3.7 nanograms/ml
[28] = nitrendipine standard 11.0 nanograms/ml
[29] = nitrendipine standard 18.3 nanograms/ml
[30] = nitrendipine standard 37.4 nanograms/ml

ability to bind to monoclonal antibody XIIIE82 /H8-Sepharose 6MB beads (in words) [1]: specifically bind | CPM Bound [1]: 9419 CPM | fmoles of Ca2+ channel blocker specifically bound per μg of monoclonal antibody XIIIE82 /H8 [1]: 4.8 fmol/µg
Compound: COC(=O)C1=C(C)NC(C)=C(C(=O)OC(C)C)C1c1cccc2nonc12 (single isomer, unassigned) [[^3 H]PN200-110]

Compound: COC(=O)C1=C(C)NC(C)=C(C(=O)OC)C1c1ccccc1[N+](=O)[O-] [Nifedipine]
% B/Bo [2, 9]: 102.0% | Net CPM [2, 9]: 8010 CPM | % B/Bo [2, 10]: 98.2% | Net CPM [2, 10]: 7708 CPM | % B/Bo [2, 11]: 76.7% | Net CPM [2, 11]: 6027 CPM | % B/Bo [2, 12]: 50.9% | Net CPM [2, 12]: 3998 CPM | % B/Bo [2, 13]: 23.4% | Net CPM [2, 13]: 1837 CPM | % B/Bo [2, 14]: 14.5% | Net CPM [2, 14]: 1138 CPM | % B/Bo [2, 15]: 8.6% | Net CPM [2, 15]: 677 CPM | % B/Bo [2, 16]: 2.4% | Net CPM [2, 16]: 190 CPM

Compound: CCOC(=O)C1=C(C)NC(C)=C(C(=O)OC)C1c1cccc([N+](=O)[O-])c1 (centres unmarked) [Nitrendipine, 2,6-dimethyl-3-carboethoxy-5-carbomethoxy-4-(3-nitrophenyl)-1,4-dihydropyridine]
Net CPM [3, 17]: 1492 CPM | % B/Bo [3, 17]: 85.4% | Net CPM [3, 18]: 1406 CPM | % B/Bo [3, 18]: 80.5% | Net CPM [3, 19]: 1024 CPM | % B/Bo [3, 19]: 58.6% | Net CPM [3, 20]: 673 CPM | % B/Bo [3, 20]: 38.5% | Net CPM [3, 21]: 482 CPM | % B/Bo [3, 21]: 27.6% | Net CPM [3, 22]: 346 CPM | % B/Bo [3, 22]: 19.8% | Net CPM [3, 23]: 225 CPM | % B/Bo [3, 23]: 12.9% | % B/Bo [4, 24]: 107.1% | Net CPM [4, 24]: 2043 CPM | % B/Bo [4, 25]: 87.8% | Net CPM [4, 25]: 1676 CPM | % B/Bo [4, 26]: 76.3% | Net CPM [4, 26]: 1456 CPM | % B/Bo [4, 27]: 60.2% | Net CPM [4, 27]: 1149 CPM | % B/Bo [4, 28]: 37.6% | Net CPM [4, 28]: 717 CPM | % B/Bo [4, 29]: 28.1% | Net CPM [4, 29]: 535 CPM | % B/Bo [4, 30]: 17.5% | Net CPM [4, 30]: 333 CPM

ability to bind to monoclonal antibody XIIIE82 /H8-Sepharose 6MB beads (in words) [1]: did not bind | CPM Bound [1]: 225 CPM | fmoles of Ca2+ channel blocker specifically bound per μg of monoclonal antibody XIIIE82 /H8 [1]: 0.1 fmol/µg
Compound: COc1ccc([C@@H]2Sc3ccccc3N(CCN(C)C)C(=O)[C@@H]2OC(C)=O)cc1 [[^3 H]Diltiazem]

Compound: COC(=O)C1=C(C)NC(C)=C(C(=O)OC)C1c1ccccc1N=C=S [[^3 H]Nifedipine-Analog, 1,4-dihydro-2,6-dimethyl-4-(2-isothiocyanatophenyl)-3,5-pyridinedicarboxylic acid dimethyl ester]
ability to bind to monoclonal antibody XIIIE82 /H8-Sepharose 6MB beads (in words) [1]: specifically bind | CPM Bound [1]: 26000 CPM | fmoles of Ca2+ channel blocker specifically bound per μg of monoclonal antibody XIIIE82 /H8 [1]: 18.8 fmol/µg

ability to bind to monoclonal antibody XIIIE82 /H8-Sepharose 6MB beads (in words) [1]: specifically bind | CPM Bound [1]: 57439 CPM | fmoles of Ca2+ channel blocker specifically bound per μg of monoclonal antibody XIIIE82 /H8 [1]: 20.9 fmol/µg
Compound: COCCOC(=O)C1=C(C)NC(C)=C(C(=O)OC(C)C)C1c1cccc([N+](=O)[O-])c1 (centres unmarked) [[^3 H]Nimodipine]

Kd [5]: 12.5 nM | ability to bind to monoclonal antibody XIIIE82 /H8-Sepharose 6MB beads (in words) [1]: specifically bind | CPM Bound [1]: 59103 CPM | fmoles of Ca2+ channel blocker specifically bound per μg of monoclonal antibody XIIIE82 /H8 [1]: 33.8 fmol/µg | Kd [6]: 26 nM
Compound: CCOC(=O)C1=C(C)NC(C)=C(C(=O)OC)C1c1cccc([N+](=O)[O-])c1 (centres unmarked) [[^3 H]Nitrendipine, 2,6-dimethyl-3-carboethoxy-5-carbomethoxy-4-(3-nitrophenyl)-1,4-dihydropyridine]

Compound: COc1ccc(CCN(C)CCCC(C#N)(c2ccc(OC)c(OC)c2)C(C)C)cc1OC (centres unmarked) [[^3 H]Verapamil]
ability to bind to monoclonal antibody XIIIE82 /H8-Sepharose 6MB beads (in words) [1]: did not bind | CPM Bound [1]: 234 CPM | fmoles of Ca2+ channel blocker specifically bound per μg of monoclonal antibody XIIIE82 /H8 [1]: 0.2 fmol/µg

Compound: COc1ccc([C@@H]2Sc3ccccc3N(CCN(C)C)C(=O)[C@@H]2OC(C)=O)cc1 [diltiazem]
cross-reaction with the antibodies [7]: do not cross-react

Compound: COc1ccc(CCN(C)CCCC(C#N)(c2ccc(OC)c(OC)c2)C(C)C)cc1OC (centres unmarked) [verapamil]
cross-reaction with the antibodies [7]: do not cross-react

Compound: Keyhole limpet hemocyanin
time to antibody response [8]: 4 weeks | titer of antiserum of 1,4-dihydropyridine-specific antibodies [8]: highest titer
